# In patent US10676440B2, “Crystalline forms of an NK-1 antagonist” (Helsinn Healthcare SA, priority 2014, dated 2020):
# What was measured:
# Format in all cases: physicochemical
# [1] = Approximate solubility in water at rt
# [2] = Moisture adsorption/desorption (DVS), hygroscopicity; conditions: for Hygroscopicity (weight change 0 to 90%-RH) / Hygroscopicity classification: 25° C., 0% RH to 90% RH; for Hygroscopicity classification: European Pharmacopoeia classes
# Method: Moisture Adsorption/Desorption data was collected on a DVS-1 (SMS Surface Measurements Systems) moisture balance system. The sorption/desorption isotherms were measured stepwise in a range of 0% RH to 90% RH at 25° C. A weight change of <0.002 mg/min was chosen as the criterion to switch to the next level of relative humidity (with a maximum equilibration time of 6 hours if the weight criterion was not met). The data were corrected for the initial moisture content of the samples so that the weight after drying the sample at 0% relative humidity was taken as the zero point. The hygroscopicity of a given substance was characterized, in accordance with the European Phamacopoeia (Technical Guide 1999), by the increase in mass when the relative humidity is raised from 0% RH to 90% RH, as defined below (where weight increase=x):
# Slightly hygroscopic: 0.2%≤x<2.0%
# Very hygroscopic: x≥15.0%
# Deliquescent: Sufficient liquid as adsorbed to form a liquid
# [3] = Gravimetric solubility of Form I in solvents
# Method: Solubility was determined gravimetrically. A weighted sample of Form I was suspended in a defined amount of solvent. After equilibration and solvent-liquid separation, the weight of the saturated liquid was determined. The solvent was then evaporated, the solid residue dried to dryness and weighed. The solubility is reported as weight of solid substance dissolved divided by the weight of the solution.
# [4] = Stability of ground and kneaded Form I by XRPD; conditions: ball milling 10 min
# Method: An untreated sample of Form I was ground by ball milling in a Retsch MM 200 grinder for 10 min at a frequency of 30 Hz. The sample was then analyzed by XRPD to determine its diffraction pattern. The stability of the ground sample was determined by comparing the diffraction pattern of the ground sample with that of the reference sample. […] In FIG. 26, the XRPD pattern for the Form I reference sample is shown in black and the pattern for the ground sample is shown in blue.
# An untreated sample of Form I was ground by ball milling in a Retsch MM 200 grinder for 10 min at a frequency of 30 Hz with a catalytic amount of water. The sample was then analyzed by XRPD to determine its diffraction pattern. The stability of the kneaded sample was determined by comparing the diffraction pattern of the kneaded sample with that of the reference sample. […] In FIG. 27, the XRPD pattern for the Form I reference sample is shown in black and the XRPD pattern for the kneaded sample is shown in red.
# [5] = Solid form stability of Form II (ambient storage, humidity, water suspension)
# Method: Form II was confirmed as a crystalline solid according to XRPD analysis. The XRPD pattern of Form II is shown in FIG. 17 and the peak data is given below in Table 7. […] The red pattern was recorded after storing Form II for 1 h and 20 min under ambient conditions.
# Thermogravimetry coupled to Fourier Transform (TGA-FT) measurements taken during the conversion show a loss of trifluoroethanol above 100° C.
compound,measurement,setting,value
"Cc1ccccc1-c1cc(N2CCN(C)CC2)ncc1N(C)C(=O)C(C)(C)c1cc(C(F)(F)F)cc(C(F)(F)F)c1 [Form III, 2-(3,5-bis(trifluoromethyl)phenyl)-N,2-dimethyl-N-(6-(4-methylpiperazin-1-yl)-4-(o-tolyl)pyridin-3-yl)propanamide]",solubility,[1],< 1000 µg/mL
"Cc1ccccc1-c1cc(N2CCN(C)CC2)ncc1N(C)C(=O)C(C)(C)c1cc(C(F)(F)F)cc(C(F)(F)F)c1 [Form I, 2-(3,5-bis(trifluoromethyl)phenyl)-N,2-dimethyl-N-(6-(4-methylpiperazin-1-yl)-4-(o-tolyl)pyridin-3-yl)propanamide]",Hygroscopicity (weight change 0 to 90%-RH),[2],0.1%
same,Hygroscopicity classification,[2],non-hygroscopic
same,weight gain during the drying step and the first adsorption segment,"[2]; first cycle, likely due to electrostatic charges",about 0.3%
same,weight loss in the second cycle,[2]; second cycle,0.1%
same,Solubility (% m/m),"[3]; 25° C., 1-Butanol",>11.6 % m/m
same,Solubility (% m/m),"[3]; 25° C., 2-Butanone",>11.2 % m/m
same,Solubility (% m/m),"[3]; 25° C., Acetone",>11.1 % m/m
same,Solubility (% m/m),"[3]; 25° C., Acetonitrile",9 % m/m
same,Solubility (% m/m),"[3]; 25° C., Cyclohexane",4.2 % m/m
same,Solubility (% m/m),"[3]; 25° C., Dichloroethane",>7.0 % m/m
same,Solubility (% m/m),"[3]; 25° C., Dioxane",>9.0 % m/m
same,Solubility (% m/m),"[3]; 25° C., Ethanol",>11.5 % m/m
same,Solubility (% m/m),"[3]; 25° C., Heptane",1.2 % m/m
same,Solubility (% m/m),"[3]; 25° C., Isopropyl Acetate",22.2 % m/m
same,Solubility (% m/m),"[3]; 25° C., Methanol",>11.9 % m/m
same,Solubility (% m/m),"[3]; 25° C., N,N-Dimethylformamide",>9.9 % m/m
same,Solubility (% m/m),"[3]; 25° C., Tetrahydrofuran",>9.9 % m/m
same,Solubility (% m/m),"[3]; 25° C., Toluene",>10.8 % m/m
same,Solubility (% m/m),"[3]; 25° C., Trifluoroethanol",>7.5 % m/m
same,Solubility (% m/m),"[3]; 25° C., Water",<0.1 % m/m
same,Solubility (% m/m),"[3]; 25° C., Water/Acetone 1:2",7.0 % m/m
same,Solubility (% m/m),"[3]; 25° C., Water/Acetone 2:1",0.2 % m/m
same,Solubility (% m/m),"[3]; 25° C., Water/Acetonitrile 1:2",6.2 % m/m
same,Solubility (% m/m),"[3]; 25° C., Water/Acetonitrile 2:1",0.5 % m/m
same,Solubility (% m/m),"[3]; 25° C., Water/Dioxane 1:2",4.9 % m/m
same,Solubility (% m/m),"[3]; 25° C., Water/Dioxane 2:1",0.1 % m/m
same,Solubility (% m/m),"[3]; 25° C., Water/Ethanol 1:2",3.1 % m/m
same,Solubility (% m/m),"[3]; 25° C., Water/Ethanol 2:1",0.1 % m/m
same,Solubility (% m/m),"[3]; 25° C., Water/Methanol 1:2",1.0 % m/m
same,Solubility (% m/m),"[3]; 25° C., Water/Methanol 2:1",0.2 % m/m
same,Solubility (% m/m),"[3]; 25° C., Xylene",18.4 % m/m
same,Solubility (% m/m),"[3]; 60° C., 1-Butanol",29.9 % m/m
same,Solubility (% m/m),"[3]; 60° C., 2-Butanone",>52.6 % m/m
same,Solubility (% m/m),"[3]; 60° C., 2-Propanol",26.2 % m/m
same,Solubility (% m/m),"[3]; 60° C., Acetone",>53.3 % m/m
same,Solubility (% m/m),"[3]; 60° C., Acetonitrile",14.4 % m/m
same,Solubility (% m/m),"[3]; 60° C., Cyclohexane",16.0 % m/m
same,Solubility (% m/m),"[3]; 60° C., Dichloroethane",34.7 % m/m
same,Solubility (% m/m),"[3]; 60° C., Dioxane",>41.6 % m/m
same,Solubility (% m/m),"[3]; 60° C., Ethanol",33.1 % m/m
same,Solubility (% m/m),"[3]; 60° C., Ethyl Acetate",45.9 % m/m
same,Solubility (% m/m),"[3]; 60° C., Heptane",3.0 % m/m
same,Solubility (% m/m),"[3]; 60° C., Isopropyl Acetate",>35.0 % m/m
same,Solubility (% m/m),"[3]; 60° C., Methanol",48.4 % m/m
same,Solubility (% m/m),"[3]; 60° C., N,N-Dimethylformamide",40.7 % m/m
same,Solubility (% m/m),"[3]; 60° C., Tetrahydrofuran",>50.4 % m/m
same,Solubility (% m/m),"[3]; 60° C., Toluene",48.8 % m/m
same,Solubility (% m/m),"[3]; 60° C., Trifluoroethanol",>39.1 % m/m
same,Solubility (% m/m),"[3]; 60° C., Water",<0.1 % m/m
same,Solubility (% m/m),"[3]; 60° C., Water/Acetone 1:2",11.7 % m/m
same,Solubility (% m/m),"[3]; 60° C., Water/Acetone 2:1",<0.1 % m/m
same,Solubility (% m/m),"[3]; 60° C., Water/Acetonitrile 1:2",6.4 % m/m
same,Solubility (% m/m),"[3]; 60° C., Water/Acetonitrile 2:1",<0.1 % m/m
same,Solubility (% m/m),"[3]; 60° C., Water/Dioxane 1:2",21.1 % m/m
same,Solubility (% m/m),"[3]; 60° C., Water/Dioxane 2:1",<0.1 % m/m
same,Solubility (% m/m),"[3]; 60° C., Water/Ethanol 1:2",5.5 % m/m
same,Solubility (% m/m),"[3]; 60° C., Water/Ethanol 2:1",<0.1 % m/m
same,Solubility (% m/m),"[3]; 60° C., Water/Methanol 1:2",0.4 % m/m
same,Solubility (% m/m),"[3]; 60° C., Water/Methanol 2:1",<0.1 % m/m
same,Solubility (% m/m),"[3]; 60° C., Xylene",>35.0 % m/m
same,stability of the ground sample (XRPD vs reference),[4]; 30 Hz,loss of crystallinity
same,stability of the kneaded sample (XRPD vs reference),[4]; 30 Hz with a catalytic amount of water,increased degree of crystallinity
"Cc1ccccc1-c1cc(N2CCN(C)CC2)ncc1N(C)C(=O)C(C)(C)c1cc(C(F)(F)F)cc(C(F)(F)F)c1 [Form II, 2-(3,5-bis(trifluoromethyl)phenyl)-N,2-dimethyl-N-(6-(4-methylpiperazin-1-yl)-4-(o-tolyl)pyridin-3-yl)propanamide]",conversion at 80% relative humidity,[5]; 80% relative humidity,convert to Form I
same,stability under ambient conditions,"[5]; ambient conditions, XRPD",unstable under ambient conditions and converts to Form I
same,conversion after storing under ambient conditions,"[5]; stored 1 h and 20 min under ambient conditions, XRPD",partial conversion to Form I
same,conversion upon suspension equilibration in water,[5]; suspension equilibration in water,convert to Form I
"Cc1ccccc1-c1cc(N2CCN(C)CC2)ncc1N(C)C(=O)C(C)(C)c1cc(C(F)(F)F)cc(C(F)(F)F)c1 [Amorphous Form, 2-(3,5-bis(trifluoromethyl)phenyl)-N,2-dimethyl-N-(6-(4-methylpiperazin-1-yl)-4-(o-tolyl)pyridin-3-yl)propanamide]",crystallization during the sorption isotherm measurement,[2],No crystallization could be observed
same,Hygroscopicity (weight change 0 to 90%-RH),[2],1.5%
same,Hygroscopicity classification,[2],slightly hygroscopic
same,moisture adsorbed,[2]; two cycles,up to 1.5 % w/w
